Results: patent US12439921B2 (priority 2019, dated 2025)

Assays:
Format in all cases: in vivo
[1] = system: Bursaphelenchus xylophilus; assay: Bursaphelenchus xylophilus control test (cotton ball test method); parameters: key: Score 1: no influence on feeding (no effect); Score 2: feeding degree of 41% or more; Score 3: feeding degree of 21 to 40%; Score 4: feeding degree of 20% or less; Score 5: no feeding (great effect); conditions: 26° C., 5 days
Experimental: As a Bursaphelenchus xylophilus control test, the cotton ball test method was used to confirm the inhibitory effect on the proliferation of Bursaphelenchus xylophilus. […] The pressure was reduced in a desiccator for about 30 minutes, the solvent was removed by evaporation, and a test cotton ball was obtained. In addition, the gray mold as the test bacterium was cultured at 22° C. for 4 days in a Petri dish containing potato dextrose agar medium. Then, the test cotton ball was placed in the center of the Petri dish, and 1500 Bursaphelenchus xylophilus (100 μL of solution) were injected therein. This Petri dish was cultured at 26° C. for 5 days, and the feeding degree of the gray mold by Bursaphelenchus xylophilus was evaluated based on the following evaluation criteria. Further, evaluation was performed in the same manner when morantel was used instead of the compound (1) or (2).
Score 1: no influence on feeding (no effect)
Score 2: feeding degree of 41% or more
Score 3: feeding degree of 21 to 40%
Score 4: feeding degree of 20% or less
Score 5: no feeding (great effect)

Ascaridia galli = Ascaridia galli control test (in vitro); conditions: 50 ppm; 24 hours; 42° C.
Experimental: To 10 mL of a chemical solution prepared by using Ringer's solution so that the compound (1) or the compound (2) would have a predetermined concentration, 6 Ascaridia galli were introduced, and the solution was cultured in a water bath at 42° C. The number of surviving worms was counted 24 hours after the start of culture, and the mortal worm rate was calculated.

Hymenolepis diminuta = Hymenolepis diminuta control test in infected rats; conditions: oral 20 mg/kg, 7 days after administration
Source text: Rats were previously infected with Hymenolepis diminuta to prepare infected rats.

Cucumber seeds = assay: Cucumber phytotoxicity test (seed dressing); conditions: 0.5 mg/seed, 10 days after sowing; for Germination Count: sowing count 5
Experimental: Cucumber seeds were sown one by one in a 3 cm styrene cup filled with sterilized soil, where the seeds had been subjected to dressing treatment with a dressing dust presented in Formulation Example 1 or Formulation Example 2 so that the amount treated of the compound (1) or compound (2) would be a predetermined amount.
The germination rate was calculated 10 days after sowing. In addition, the germination rate was also calculated in the same manner for the case of sowing seeds treated with fluensulfone instead of Formulation Example 1 (compound (1)) or Formulation Example 2 (compound (2)) and for the case of sowing seeds treated with none of the compounds.

Meloidogyne incognita [2] = assay: Meloidogyne incognita control test 1 (seed dressing); conditions: cucumber; seed dressing 0.5 mg/seed; 21 days after inoculation
Experimental: Cucumber seeds were sown one by one in a 3 cm styrene cup filled with sterilized soil, where the seeds had been subjected to dressing treatment with a dressing dust presented in Formulation Example 1 so that the amount treated of the compound (1) would be a predetermined amount. Then, 10 days after sowing, 200 counts/mL of the second stage larval solution of Meloidogyne incognita was inoculated at 1 mL for each seed. Then, 21 days after the inoculation, the degree of gall formation on the cucumber root was classified by a visual inspection based on the following 6-level gall formation degree criteria, and the gall index was calculated. In addition, the gall index was also calculated in the same manner for the case of sowing seeds treated with paraherquamide A instead of Formulation Example 1 (compound (1)) and for the case of sowing seeds treated with none of the compounds.
(§1) Gall index=(0×a+1×b+2×c+3×d+4×e+5×f)/((a+b+c+d+e+f) ×5)×100 • a: number of strains that meet the gall formation degree criteria of 0, b: number of strains that meet the gall formation degree criteria of 1, c: number of strains that meet the gall formation degree criteria of 2, d: number of strains that meet the gall formation degree criteria of 3, e: number of strains that meet the gall formation degree criteria of 4, and f: number of strains that meet the gall formation degree criteria of 5. […]

wheat = assay: Wheat growth effect test; conditions: 3 days; for Plant Height Relative to Untreated: untreated = 100; for Plant Height: root immersion
Experimental: Each well of a 24-well plate was charged with 200 μL of a chemical solution prepared to have a final concentration of 10% acetone and a predetermined concentration of the compound (1), and the root of the sprouting wheat was immersed therein. Then, 3 days after the immersion, the plant height of the stems and leaves was measured to evaluate the effect of the compound (1) on the growth of wheat. In addition, the plant height of the stems and leaves was also measured for the case of sowing seeds not treated with the compound (1) (untreated). Note that Table 8 also presents the relative values of plant height (relative to untreated) when the untreated case was set to 100.

Meloidogyne incognita [3] = assay: Meloidogyne incognita control test (soil irrigation); conditions: cucumber; soil irrigation 100 ppm, 3 mL; 21 days after inoculation
Experimental: Cucumber seeds were sown one by one in a 3 cm styrene cup filled with sterilized soil. After germination, 3 mL each of a chemical solution prepared with 10% acetone water was irrigated into the soil so that the compound (1) would be 100 ppm when irrigated into the soil. After 1 hour, 200 counts/mL of the second stage larval solution of Meloidogyne incognita were inoculated at 1 mL/pot. Then, 21 days after the inoculation, the degree of gall formation on the cucumber root was classified by a visual inspection based on the following 6-level gall formation degree criteria, and the gall index was calculated. In addition, the gall index, in the case of the treated group not treating the compound (1) (untreated), was also calculated in the same manner.
as §1, with “index=(0×a+1×b+2×c+3×d+4×e+5×f)/((a+b+c+d+e+f)×5)×100” for “index=(0×a+1×b+2×c+3×d+4×e+5×f)/((a+b+c+d+e+f) ×5)×100 •”

Heterodera glycines = Heterodera glycines control test (in vitro); conditions: 10 ppm; second stage larvae; 2 days after addition; 25° C.
Experimental: Each well of a 24-well plate was charged with 1 mL of a chemical solution prepared to have a final concentration of 0.1% acetone and a predetermined concentration of the compound (1), in which 20 to 30 larvae of Heterodera glycines at the second stage were released and left to stand in the dark at 25° C. The number of surviving and moribund worms 2 days after the addition of the chemical solution was measured. In addition, the number of surviving and moribund worms in the untreated group not treating the compound (1) was measured in the same manner, and the corrected mortal worm rate was calculated by the following formula.
Corrected mortal worm rate (%)={(mortal worm rate of treated group−mortal worm rate of untreated group)/(100−mortal worm rate of untreated group)}×100

Row | SMILES | mortal worm rate (Ascaridia galli) | control effect (Hymenolepis diminuta) | Germination Rate (Cucumber seeds) [%] | Germination Count (Cucumber seeds) | Score (feeding degree of the gray mold) ([1]; 20 μg/cotton ball, 200 ppm) | Gall Index (Meloidogyne incognita [2]) | also measured
1 | Cc1ccsc1/C=C/C1=NCCCN1C [Morantel, morantel, reference compound] |  |  |  |  |  |  | Score (feeding degree of the gray mold) ([1]; 5 μg/cotton ball, 50 ppm): 5
2 | C[C@H]1CCN2C[C@@]34C[C@]5(CC(=O)N(C)C5=O)C(C)(C)[C@@H]3C[C@]12C(=O)N4C [Compound (2), asperparaline A] | 0 | no effect | 100 | 5 | 1 |  | 
3 | CN1C(=O)[C@]23C[C@@H]4C(C)(C)[C@@]5(C[C@@]41CN2CC[C@@]3(C)O)C(=O)Nc1c5ccc2c1OC=CC(C)(C)O2 [Paraherquamide A, paraherquamide A, reference compound] |  |  |  |  |  | 44 | 
4 | O=S(=O)(CCC(F)=C(F)F)c1ncc(Cl)s1 [Fluensulfone, fluensulfone, reference compound] |  |  | 0 | 0 |  |  | 
5 | C[C@H]1CC(=O)N2C[C@]34C[C@]5(CC(=O)N(C)C5=O)C(C)(C)[C@@H]3CC12C(=O)N4C [Compound (1), 16-keto-aspergillimide] | 0 | no effect | 100 | 5 | 1 | 8 | Plant Height Relative to Untreated (wheat; 50 ppm): 106.1; Plant Height (wheat; 50 ppm): 9.87 cm; Plant Height Relative to Untreated (wheat; 100 ppm): 98.9; Plant Height (wheat; 100 ppm): 9.20 cm; Plant Height Relative to Untreated (wheat; 200 ppm): 98.9; Plant Height (wheat; 200 ppm): 9.20 cm; Gall Index (Meloidogyne incognita [3]): 0; corrected mortal worm rate (Heterodera glycines): 100%
